Test results published in PubChem BioAssay (NCI).
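These data come from cells grown in 96-well plates and exposed to compound for 48 hours at five concentrations. TGI marks complete inhibition of growth.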

Experiments:
Test in all cases: inhibition of tumour cell growth, NCI panel, 48 h
UACC-257 melanoma = test system: UACC-257 melanoma
SNB-75 CNS = test system: SNB-75 CNS
OVCAR-4 ovarian = test system: OVCAR-4 ovarian
NCI/ADR-RES ovarian = test system: NCI/ADR-RES ovarian
K-562 leukemia = test system: K-562 leukemia
SNB-19 CNS = test system: SNB-19 CNS
UO-31 renal = test system: UO-31 renal
SK-OV-3 ovarian = test system: SK-OV-3 ovarian

Structure (SMILES)	TGI (UACC-257 melanoma)	TGI (SNB-75 CNS)	TGI (OVCAR-4 ovarian)	TGI (NCI/ADR-RES ovarian)	TGI (K-562 leukemia)	TGI (SNB-19 CNS)	TGI (UO-31 renal)	TGI (SK-OV-3 ovarian)
COc1ccc(OC)c(C2CCc3cnc4nc(N)nc(N)c4c3C2)c1 (stereo not given)	> 100 µM	50.1 µM	> 100 µM	> 100 µM	> 100 µM	> 100 µM	85.3 µM	> 100 µM
CC[C@H](CCCCC1CC[C@@H]2CC(=O)C[C@H]12)OC (stereo not given in full)	> 100 µM	> 100 µM	> 100 µM	> 100 µM	> 100 µM	> 100 µM	> 100 µM	> 100 µM
N#Cc1c(N2CCOCC2)ncn(-c2ccccc2)c1=O	> 100 µM	> 100 µM		> 100 µM	> 100 µM	> 100 µM	> 100 µM	> 100 µM
CCCCc1ccc(Nc2nc(Cl)c3[nH]cnc3n2)cc1	30.8 µM	85.4 µM	> 100 µM	47.7 µM	> 100 µM	43.5 µM	72.5 µM	99.8 µM
CCNC1CC(C(C)(C)NCC)CC=C1C (stereo not given)	> 100 µM	> 100 µM	> 100 µM	> 100 µM	> 100 µM	> 100 µM	> 100 µM	> 100 µM
O=[N+]([O-])c1cc(Cl)ccc1S(=O)(=O)c1ccccc1	> 100 µM	> 100 µM	> 100 µM	> 100 µM	> 100 µM	> 100 µM	> 100 µM	> 100 µM
CCCCNc1nc(SC)nc2nc[nH]c12	> 100 µM	> 100 µM	> 100 µM	> 100 µM	> 100 µM	> 100 µM	> 100 µM	41.9 µM
COc1cc2c[n+](C)c3c4ccccc4ccc3c2cc1OC	21 µM	18.7 µM	28.6 µM	> 100 µM	21.2 µM	33.6 µM	> 100 µM	32.5 µM
COc1cc2c(cc1OC)-c1cc3ccccc3c(=O)n1CCC2	> 86.1 µM	> 90.3 µM	> 100 µM	32.2 µM	> 81.9 µM	> 100 µM	61.1 µM	> 100 µM
C=CCCCC1(C)CCCCNC1=O (stereo not given)	> 10 µM	> 10 µM	> 10 µM	> 10 µM	> 10 µM	> 10 µM	> 10 µM	> 10 µM
COc1cc(Cn2c3c(c4cc(O)ccc42)C(=O)c2ccccc2C3=O)cc(OC)c1	> 100 µM		33.6 µM	28.8 µM		25.4 µM	30.4 µM	6.68 µM
CN1c2ccccc2C2c3c(O)ccc(O)c3C=C([N+](=O)[O-])C21 (stereo not given)	0.516 µM	> 24.2 µM	2.81 µM	> 20 µM	> 100 µM	2.03 µM	2.1 µM	13.5 µM
COc1ccc(-c2nc3ccc(C)cc3o2)c(OC)c1	46.5 µM	54.4 µM	74.1 µM	99.9 µM	> 64.5 µM	61.4 µM	58.1 µM	> 100 µM
CC(=O)CN=C(C)NNc1ccc([N+](=O)[O-])cc1[N+](=O)[O-]		> 100 µM	> 100 µM	> 100 µM	> 100 µM	> 100 µM	> 100 µM	> 100 µM
C[C@H](CCc1nc(C#N)c(N)o1)[C@H]1CC[C@H]2[C@@H]3[C@@H](O)CC4C[C@@H](O)CC[C@]4(C)[C@H]3C[C@@H](O)[C@]12C (stereo not given in full)	50.6 µM	54 µM	> 87.6 µM	> 100 µM	86.4 µM	57.5 µM	61.8 µM	73.8 µM
COc1cccc(/C=N/n2c(-c3ccccc3)n[nH]c2=O)c1	> 100 µM	93.2 µM	> 100 µM	> 100 µM	> 100 µM	> 100 µM	> 100 µM	> 100 µM
CC(C)(C)OC(=O)C(C1NC(C(=O)O)C(C)(C)S1)N1C(=O)c2ccccc2C1=O (stereo not given)	> 100 µM	> 100 µM	> 100 µM	> 100 µM	> 100 µM	> 100 µM	> 100 µM	> 100 µM
Cn1cc(-c2ccc(CCOC3CCCCO3)cc2)c2c(C#N)cccc21 (stereo not given)	> 100 µM		> 100 µM	> 100 µM	> 100 µM	> 100 µM	> 100 µM	> 100 µM
CN1N=C(c2ccncc2)OC1c1ccc(Cl)c(Cl)c1 (stereo not given)	> 100 µM		> 100 µM	> 100 µM	> 100 µM	> 100 µM	> 100 µM	> 100 µM
CCCCCCCCCCCCCCCCCCNc1ccn(C2OC(CO)C(OP(=O)(O)OCC3CCC(n4ccc(N)nc4=O)O3)C2O)c(=O)n1 (stereo not given)	> 100 µM	> 100 µM	> 100 µM	> 100 µM		> 100 µM	56.7 µM	> 100 µM
Nc1nc(Cl)cc(Nc2ccc3c(c2)CCC3)n1	> 100 µM		> 100 µM	> 100 µM	> 100 µM	> 100 µM	> 100 µM	> 100 µM
COC(=O)C1=NN2c3ccccc3CN([C@@H](C)c3ccccc3)C(=O)[C@@H]2C1	> 100 µM		26.1 µM	56.1 µM	76.6 µM	> 100 µM	60.7 µM	> 100 µM
c1ccc(C2CC(N3CCOCC3)=Nc3ccccc3N2)cc1 (stereo not given)	> 100 µM		> 100 µM	> 100 µM	> 100 µM	> 100 µM	> 100 µM	> 100 µM
Cc1ccc(C2SC(N)=Nc3c2c(C)nn3C(=O)c2ccncc2)cc1 (stereo not given)	> 10 µM	> 10 µM	> 10 µM	> 10 µM	> 10 µM	> 10 µM		> 10 µM
CCOC(=O)c1sc2nc(SC)nc(Nc3ccc(OC)c(OC)c3)c2c1N	> 100 µM		> 100 µM	> 100 µM	> 100 µM	56 µM	> 100 µM	52.9 µM
CC(C)(C)OC(=O)C1/C(=C/CO)CN1C(=O)OC(C)(C)C (stereo not given)	> 100 µM		> 100 µM	> 100 µM	> 100 µM	> 100 µM	> 100 µM	> 100 µM
